# Reference: US20230390276A1, “TREATMENT OF AUTOIMMUNE DISEASES WITH A DIHYDROOROTATE HEHYDROGENASE (DHODH) INHIBITOR” (Aslan Pharmaceuticals Pte. Ltd., priority 2020, published 2023)
# Assays:
# [1] = tested on: rheumatoid arthritis (RA) Adjuvant-Induced Arthritis (AIA) model; assay: Adjuvant-induced arthritis (AIA) model, paw inflammation AUC; type: in vivo, Male Wistar rats; settings: for % Inhibition of the AUC (mean ± SEM): vs mean of vehicle
# [2] = tested on: rheumatoid arthritis (RA) Adjuvant-Induced Arthritis (AIA) model; assay: X-ray (radiological) score of paws in AIA model; type: in vivo, Male Wistar rats; settings: 3 mg/kg; 2 to 3 independent experiments
# Method: Rats were administered the CFA suspension every day in the morning for 10 consecutive days. Body weight was measured every day and paw volumes every other day. On day 11 post-treatment (24 hrs after last administration), the rats were anesthetised, blood samples were collected from their retroorbital plexus to determine cell counts, and then sacrificed. Hind paws were excised to perform X-ray analysis and a score of radiological damage was performed by a scientist unaware in a blind manner. The radiological score is a composite of 5 different parameters evaluated from the X-ray images of every individual paw. The 5 parameters are: bone demineralisation, periostitis, narrowing of the joint space, cystic degeneration, and inflammation of the soft tissues. For each parameter, a value of 0-4 was assigned, which is proportional to the severity observed. The sum of the scores of the 5 parameters provides the radiological score for each animal. The effect of a treatment on the inhibition of the radiological score was measured by calculating the % inhibition of the radiological score of every animal belonging to a treatment group vs the mean of the vehicle treated group. In the case where several experiments were conducted, the values provided are the mean of the individual experiments and the SEM.
# [3] = tested on: multiple sclerosis experimental autoimmune encephalomyelitis (EAE) model; assay: EAE model of multiple sclerosis, clinical score (Example 1); type: in vivo; settings: oral 1, 3, 10 or 15 mg/kg per day from Day 8 after disease induction
# Text: Experimental autoimmune encephalomyelitis (EAE) is a well-studied animal model of demyelinating diseases, such as human multiple sclerosis (MS). EAE is induced by injecting susceptible animals with purified myelin components, central nervous system (CNS) extract, or synthesized specific peptides emulsified in an adjuvant. The peptides are for example derived from myelin basic protein (MBP), myelin oligodendrocyte glycoprotein (MOG) or proteolipid protein (PLP). To investigate the effect of ASLAN003 on multiple sclerosis, ASLAN003 was administered orally to the EAE model at doses of 1 mg/kg, 3 mg/kg, 10 mg/kg or 15 mg/kg per day, starting from Day 8 after disease induction. A vehicle control was included.
# DSS induced IBD model = assay: Dextran sulfate sodium (DSS) induced inflammatory bowel disease (IBD) mouse model; type: in vivo, Male C57BL/6 mice
# Method: Male C57BL/6 mice aged 6-7 weeks were procured from Shanghai Lingchang Bio Tech Co. Ltd, China. Animals were randomized into groups based on the body weight: • Group 01: Purified water, ad libitum, Day 1-8; Vehicle, 5 mL/kg, P0, QD, Day 0-9, n=6 • Group 02: 3% DSS in water, ad libitum, Day 1-8; Vehicle, 5 mL/kg, P0, QD, Day 0-9, n=8 • Group 03: 3% DSS in water, ad libitum, Day 1-8; positive control V, 20 mg/kg, P0, QD, Day 0-9, n=8 • Group 04: 3% DSS in water, ad libitum, Day 1-8; ASLAN003, low dose, P0, QD, Day 0-9, n=8a • Group 05: 3% DSS in water, ad libitum, Day 1-8; ASLAN003, high dose, P0, QD, Day 0-9, n=8 • Abbreviations: QD=Once daily; PO=Oral gavage. • Study duration: 3 weeks of acclimation phase, and 10 days of treatment phase starting from Day 0 (Day 0-10). • Colitis model induction: To induce acute experimental colitis, mice in Groups 02-05 were provided ad libitum access to 3% DSS in purified water for 7 days (Day 1-7), followed by purified water for 2 days (Day 9-10). The drinking water containing DSS was changed once in two days. Mice in Group 01 was kept on purified water as a control, during Day 1-7. • In-life parameters measured: • Water and food consumption was monitored once daily during Day 0-10. • Body weight was measured once daily during Day 0-10, with twice daily clinical monitoring. • Stool observation as conducted once daily during Day 0-10. A disease activity index (DAI) was determined to quantify induction of colitis. • Intestinal permeability was assessed on Days 0 and 9. • Faeces was collected for lipocalin-2 detection on Days 0, 4, 8 and 10. • Study Termination: The mice were sacrificed on Day 10, and the following was performed on the sacrificed animals: • The entire colon (from caecum to anus) was collected and its length from ileocecal valve to anus was measured. • One photo of the entire colon for each mouse was taken. • The colon was opened along the mesenteric border, rinsed with saline, blotted dry and its weight was measured. • The colon was processed as ‘spiral Swiss Rolls’, fixed in 10% neutral-buffered formalin for 24-48 hours, and embedded in paraffin (one block per mouse) for hematoxylin-eosin (H&E) staining and histopathological evaluation. • The spleen was dissected, its tissue weight measured and recorded, and then discarded.
# EAE Lewis rat model [4] = assay: EAE Lewis rat model, clinical score AUC (Example 2); type: in vivo, Male Lewis rats
# Method: For the induction of EAE, guinea pig myelin basic protein (MBP) (Sigma, M2295) suspended in 0.9% saline solution at a concentration of 2 mg/ml was used. The solution was emulsified with an equal volume of Freund's complete adjuvant (Sigma, F5881) containing 4 mg/ml of heat-inactivated Mycobacterium tuberculosis H37Ra (Difeo Laboratories, Ref. 231141). Male Lewis rats were immunized with 0.1 ml of emulsion by subcutaneous injection into the right and left hind footpads with the emulsion containing MBP at 100 μg/rat.
# Individual animals were examined daily for clinical signs of neurological deficits scored on a 0 to 5 scale, as follows:
# Clinical signs of the disease were observed on day 8-9 after induction.
# As disease progressed, animals with a score of 4 were sacrificed if disability indicated little chance of recovery, in accordance with animal welfare standards. Mortality due to sacrifice or spontaneous EAE-related death was recorded as a 5 on the given day. This death score continued to be included in the clinical assessment, but no body weight measurements could be carried forward.
# LAS 186323 (ASLAN003), positive control T and positive control F were freshly prepared every day and suspended in 0.5% Methylcellulose and 0.1% Tween 80 in water, at the specified doses and administered by oral gavage in a volume of 10 ml/kg.
# Evaluation of disability was performed on a daily basis and a clinical score given to each animal, as described. The area under the curve (AUC) of the clinical score was generated for each animal from the data recorded along the experiment. The percentage of inhibition of the AUC was calculated for every animal versus the mean of the AUC of the vehicle group. The mean percentage of inhibition per treatment and dose was calculated.
# [5] = WBC and platelet counts in AIA model; type: in vivo, Male Wistar rats; settings: arthritic rats, 24 hrs after last administration
# Method: Rats were administered the CFA suspension every day in the morning for 10 consecutive days. Body weight was measured every day and paw volumes every other day. On day 11 post-treatment (24 hrs after last administration), the rats were anesthetised, blood samples were collected from their retroorbital plexus to determine cell counts, and then sacrificed. Hind paws were excised to perform X-ray analysis and a score of radiological damage was performed by a scientist unaware in a blind manner.
# EAE Lewis rat model [6] = assay: Histology of the CNS in EAE rats; type: in vivo, Male Lewis rats; settings: highest doses tested; compared to vehicle-treated animals
# Method: At the end of the experiment, animals were killed by exsanguination and necropsies were performed in a blind manner. The spinal cords (CNS; spinal cord, medulla oblonga, cerebellum) of EAE animals were obtained, fixed in 4% formalin in PBS, and embedded in paraffin. Six μm-thickness sections were prepared and then stained with hematoxylin and eosin. The histological score was evaluated as follows: • 0: no lesions; • 1: solitary lesions with cell infiltrates of low cellular density in the entire section; • 2: a few lesions with moderate cell infiltration in each of a few fields; • 3: many lesions in almost all fields with massive cell infiltration and accompanying edema (Kataoka, 2005).
# [7] = Haematological cell count in EAE rats; type: in vivo, Male Lewis rats; settings: for number of neutrophils: 24 hours after last administration, no statistically significant difference versus vehicle
# Method: At the end of the assay, 24 h after last administration, blood samples from the retro-orbital plexus were obtained from all animals under light anaesthesia. Samples were used to determine complete blood cell count (XT-2000i/XT-1800i, Sysmex Corporation). Absolute values were reported for all cell types.
structure (smiles),measurement,setting,value
"COc1cccc(-c2cc(F)c(Nc3ncccc3C(=O)O)c(F)c2)c1 [ASLAN003, 2-(3,5-difluoro-3′-methoxybiphenyl-4-ylamino) nicotinic acid]",AUC of right paw inflammation (mean ± SEM),"[1]; 1 mg/kg oral daily, 2 to 5 independent experiments",9.11 ± 3.14
same,% Inhibition of the AUC (mean ± SEM),[1]; 1 mg/kg oral daily,32.76 ± 22.8%
same,% Inhibition of the AUC (mean ± SEM),[1]; 3 mg/kg oral daily,53.09 ± 2.4%
same,% Inhibition of the AUC (mean ± SEM),[1]; 10 mg/kg oral daily,64.49 ± 4.6%
same,ED50,"[1]; Rattus norvegicus, from 2 to 5 independent experiments, read-out: ED50 (mean % reduction in paw volume)",4.6 mg/kg
same,X-ray score (mean ± SEM),[2],2.16 ± 0.25
same,clinical score compared to the vehicle control,[3],significantly reduced clinical score
same,stool consistency,"DSS induced IBD model; 75 mg/kg PO QD (group 5), Days 2 to 9",best overall stool consistency
same,spleen weight,"DSS induced IBD model; 75 mg/kg PO QD (group 5), end of study",most similar to the control group 1
same,Disease Activity Index (DAI),"DSS induced IBD model; 75 mg/kg PO QD (group 5), over the 10 days",lower overall increase in DAI
same,bloody stools,"DSS induced IBD model; 75 mg/kg PO QD (group 5), over the course of the study",lowest incidence of bloody stools
same,colon weight/length,"DSS induced IBD model; 25 and 75 mg/kg PO QD (groups 4 and 5), end of study, vs Vehicle group 2",fairly similar
same,lipocalin in faeces (intestinal inflammation),"DSS induced IBD model; 25 and 75 mg/kg PO QD (groups 4 and 5), vs vehicle treated group 2",less intestinal inflammation
same,loss in body weight,"DSS induced IBD model; 25 and 75 mg/kg PO QD Day 0-9 (groups 4 and 5), vs DSS induced vehicle group 2",similar
same,% AUC inhibition Mean (SEM) of clinical score,EAE Lewis rat model [4]; 1 mg/kg oral daily,41.1 (13.34) %
same,% AUC inhibition Mean (SEM) of clinical score,EAE Lewis rat model [4]; 3 mg/kg oral daily,44.4 (10.79) %
same,% AUC inhibition Mean (SEM) of clinical score,EAE Lewis rat model [4]; 10 mg/kg oral daily,65.1 (9.02) %
same,% AUC inhibition Mean (SEM) of clinical score,EAE Lewis rat model [4]; 15 mg/kg oral daily,84.4 (4.94) %
same,ED50 (clinical score AUC inhibition),EAE Lewis rat model [4]; calculated by linear regression,2.7 mg/kg/day
same,Platelets,[5]; 1 mg/kg,1418 ± 180 ×10^3/μl
same,White blood cells,[5]; 1 mg/kg,20.6 ± 0 ×10^3/μl
same,Platelets,[5]; 3 mg/kg,1180 ± 45.9 ×10^3/μl
same,White blood cells,[5]; 3 mg/kg,16.2 ± 0.86 ×10^3/μl
same,CNS histological score (microscopic CNS lesions),EAE Lewis rat model [6],profound improvement in the microscopic CNS lesions
same,number of neutrophils,[7]; 10 mg/kg,not at 10 mg/kg
same,number of neutrophils,[7]; 3 and 15 mg/kg,reduction in the number of neutrophils
same,blood cell count,"[7]; once a day oral, 1-15 mg/kg",did not have a significant effect
